Data: patent publication US20090075888A1, “Cardiovascular and Brain Cell Therapy Using Intracellular Ryanodine Receptor Modulation by the Estrogen Receptor Beta” (University of North Texas Health Science Center at Fort …, priority 2007, published 2009)

Biological target: mouse brain RyR2 (Mus musculus, UniProt E9Q401)
Assay: Single-channel current recordings of RyR2 incorporated in artificial lipid bilayer

Sequence of mouse brain RyR2 (E9Q401 whole entry): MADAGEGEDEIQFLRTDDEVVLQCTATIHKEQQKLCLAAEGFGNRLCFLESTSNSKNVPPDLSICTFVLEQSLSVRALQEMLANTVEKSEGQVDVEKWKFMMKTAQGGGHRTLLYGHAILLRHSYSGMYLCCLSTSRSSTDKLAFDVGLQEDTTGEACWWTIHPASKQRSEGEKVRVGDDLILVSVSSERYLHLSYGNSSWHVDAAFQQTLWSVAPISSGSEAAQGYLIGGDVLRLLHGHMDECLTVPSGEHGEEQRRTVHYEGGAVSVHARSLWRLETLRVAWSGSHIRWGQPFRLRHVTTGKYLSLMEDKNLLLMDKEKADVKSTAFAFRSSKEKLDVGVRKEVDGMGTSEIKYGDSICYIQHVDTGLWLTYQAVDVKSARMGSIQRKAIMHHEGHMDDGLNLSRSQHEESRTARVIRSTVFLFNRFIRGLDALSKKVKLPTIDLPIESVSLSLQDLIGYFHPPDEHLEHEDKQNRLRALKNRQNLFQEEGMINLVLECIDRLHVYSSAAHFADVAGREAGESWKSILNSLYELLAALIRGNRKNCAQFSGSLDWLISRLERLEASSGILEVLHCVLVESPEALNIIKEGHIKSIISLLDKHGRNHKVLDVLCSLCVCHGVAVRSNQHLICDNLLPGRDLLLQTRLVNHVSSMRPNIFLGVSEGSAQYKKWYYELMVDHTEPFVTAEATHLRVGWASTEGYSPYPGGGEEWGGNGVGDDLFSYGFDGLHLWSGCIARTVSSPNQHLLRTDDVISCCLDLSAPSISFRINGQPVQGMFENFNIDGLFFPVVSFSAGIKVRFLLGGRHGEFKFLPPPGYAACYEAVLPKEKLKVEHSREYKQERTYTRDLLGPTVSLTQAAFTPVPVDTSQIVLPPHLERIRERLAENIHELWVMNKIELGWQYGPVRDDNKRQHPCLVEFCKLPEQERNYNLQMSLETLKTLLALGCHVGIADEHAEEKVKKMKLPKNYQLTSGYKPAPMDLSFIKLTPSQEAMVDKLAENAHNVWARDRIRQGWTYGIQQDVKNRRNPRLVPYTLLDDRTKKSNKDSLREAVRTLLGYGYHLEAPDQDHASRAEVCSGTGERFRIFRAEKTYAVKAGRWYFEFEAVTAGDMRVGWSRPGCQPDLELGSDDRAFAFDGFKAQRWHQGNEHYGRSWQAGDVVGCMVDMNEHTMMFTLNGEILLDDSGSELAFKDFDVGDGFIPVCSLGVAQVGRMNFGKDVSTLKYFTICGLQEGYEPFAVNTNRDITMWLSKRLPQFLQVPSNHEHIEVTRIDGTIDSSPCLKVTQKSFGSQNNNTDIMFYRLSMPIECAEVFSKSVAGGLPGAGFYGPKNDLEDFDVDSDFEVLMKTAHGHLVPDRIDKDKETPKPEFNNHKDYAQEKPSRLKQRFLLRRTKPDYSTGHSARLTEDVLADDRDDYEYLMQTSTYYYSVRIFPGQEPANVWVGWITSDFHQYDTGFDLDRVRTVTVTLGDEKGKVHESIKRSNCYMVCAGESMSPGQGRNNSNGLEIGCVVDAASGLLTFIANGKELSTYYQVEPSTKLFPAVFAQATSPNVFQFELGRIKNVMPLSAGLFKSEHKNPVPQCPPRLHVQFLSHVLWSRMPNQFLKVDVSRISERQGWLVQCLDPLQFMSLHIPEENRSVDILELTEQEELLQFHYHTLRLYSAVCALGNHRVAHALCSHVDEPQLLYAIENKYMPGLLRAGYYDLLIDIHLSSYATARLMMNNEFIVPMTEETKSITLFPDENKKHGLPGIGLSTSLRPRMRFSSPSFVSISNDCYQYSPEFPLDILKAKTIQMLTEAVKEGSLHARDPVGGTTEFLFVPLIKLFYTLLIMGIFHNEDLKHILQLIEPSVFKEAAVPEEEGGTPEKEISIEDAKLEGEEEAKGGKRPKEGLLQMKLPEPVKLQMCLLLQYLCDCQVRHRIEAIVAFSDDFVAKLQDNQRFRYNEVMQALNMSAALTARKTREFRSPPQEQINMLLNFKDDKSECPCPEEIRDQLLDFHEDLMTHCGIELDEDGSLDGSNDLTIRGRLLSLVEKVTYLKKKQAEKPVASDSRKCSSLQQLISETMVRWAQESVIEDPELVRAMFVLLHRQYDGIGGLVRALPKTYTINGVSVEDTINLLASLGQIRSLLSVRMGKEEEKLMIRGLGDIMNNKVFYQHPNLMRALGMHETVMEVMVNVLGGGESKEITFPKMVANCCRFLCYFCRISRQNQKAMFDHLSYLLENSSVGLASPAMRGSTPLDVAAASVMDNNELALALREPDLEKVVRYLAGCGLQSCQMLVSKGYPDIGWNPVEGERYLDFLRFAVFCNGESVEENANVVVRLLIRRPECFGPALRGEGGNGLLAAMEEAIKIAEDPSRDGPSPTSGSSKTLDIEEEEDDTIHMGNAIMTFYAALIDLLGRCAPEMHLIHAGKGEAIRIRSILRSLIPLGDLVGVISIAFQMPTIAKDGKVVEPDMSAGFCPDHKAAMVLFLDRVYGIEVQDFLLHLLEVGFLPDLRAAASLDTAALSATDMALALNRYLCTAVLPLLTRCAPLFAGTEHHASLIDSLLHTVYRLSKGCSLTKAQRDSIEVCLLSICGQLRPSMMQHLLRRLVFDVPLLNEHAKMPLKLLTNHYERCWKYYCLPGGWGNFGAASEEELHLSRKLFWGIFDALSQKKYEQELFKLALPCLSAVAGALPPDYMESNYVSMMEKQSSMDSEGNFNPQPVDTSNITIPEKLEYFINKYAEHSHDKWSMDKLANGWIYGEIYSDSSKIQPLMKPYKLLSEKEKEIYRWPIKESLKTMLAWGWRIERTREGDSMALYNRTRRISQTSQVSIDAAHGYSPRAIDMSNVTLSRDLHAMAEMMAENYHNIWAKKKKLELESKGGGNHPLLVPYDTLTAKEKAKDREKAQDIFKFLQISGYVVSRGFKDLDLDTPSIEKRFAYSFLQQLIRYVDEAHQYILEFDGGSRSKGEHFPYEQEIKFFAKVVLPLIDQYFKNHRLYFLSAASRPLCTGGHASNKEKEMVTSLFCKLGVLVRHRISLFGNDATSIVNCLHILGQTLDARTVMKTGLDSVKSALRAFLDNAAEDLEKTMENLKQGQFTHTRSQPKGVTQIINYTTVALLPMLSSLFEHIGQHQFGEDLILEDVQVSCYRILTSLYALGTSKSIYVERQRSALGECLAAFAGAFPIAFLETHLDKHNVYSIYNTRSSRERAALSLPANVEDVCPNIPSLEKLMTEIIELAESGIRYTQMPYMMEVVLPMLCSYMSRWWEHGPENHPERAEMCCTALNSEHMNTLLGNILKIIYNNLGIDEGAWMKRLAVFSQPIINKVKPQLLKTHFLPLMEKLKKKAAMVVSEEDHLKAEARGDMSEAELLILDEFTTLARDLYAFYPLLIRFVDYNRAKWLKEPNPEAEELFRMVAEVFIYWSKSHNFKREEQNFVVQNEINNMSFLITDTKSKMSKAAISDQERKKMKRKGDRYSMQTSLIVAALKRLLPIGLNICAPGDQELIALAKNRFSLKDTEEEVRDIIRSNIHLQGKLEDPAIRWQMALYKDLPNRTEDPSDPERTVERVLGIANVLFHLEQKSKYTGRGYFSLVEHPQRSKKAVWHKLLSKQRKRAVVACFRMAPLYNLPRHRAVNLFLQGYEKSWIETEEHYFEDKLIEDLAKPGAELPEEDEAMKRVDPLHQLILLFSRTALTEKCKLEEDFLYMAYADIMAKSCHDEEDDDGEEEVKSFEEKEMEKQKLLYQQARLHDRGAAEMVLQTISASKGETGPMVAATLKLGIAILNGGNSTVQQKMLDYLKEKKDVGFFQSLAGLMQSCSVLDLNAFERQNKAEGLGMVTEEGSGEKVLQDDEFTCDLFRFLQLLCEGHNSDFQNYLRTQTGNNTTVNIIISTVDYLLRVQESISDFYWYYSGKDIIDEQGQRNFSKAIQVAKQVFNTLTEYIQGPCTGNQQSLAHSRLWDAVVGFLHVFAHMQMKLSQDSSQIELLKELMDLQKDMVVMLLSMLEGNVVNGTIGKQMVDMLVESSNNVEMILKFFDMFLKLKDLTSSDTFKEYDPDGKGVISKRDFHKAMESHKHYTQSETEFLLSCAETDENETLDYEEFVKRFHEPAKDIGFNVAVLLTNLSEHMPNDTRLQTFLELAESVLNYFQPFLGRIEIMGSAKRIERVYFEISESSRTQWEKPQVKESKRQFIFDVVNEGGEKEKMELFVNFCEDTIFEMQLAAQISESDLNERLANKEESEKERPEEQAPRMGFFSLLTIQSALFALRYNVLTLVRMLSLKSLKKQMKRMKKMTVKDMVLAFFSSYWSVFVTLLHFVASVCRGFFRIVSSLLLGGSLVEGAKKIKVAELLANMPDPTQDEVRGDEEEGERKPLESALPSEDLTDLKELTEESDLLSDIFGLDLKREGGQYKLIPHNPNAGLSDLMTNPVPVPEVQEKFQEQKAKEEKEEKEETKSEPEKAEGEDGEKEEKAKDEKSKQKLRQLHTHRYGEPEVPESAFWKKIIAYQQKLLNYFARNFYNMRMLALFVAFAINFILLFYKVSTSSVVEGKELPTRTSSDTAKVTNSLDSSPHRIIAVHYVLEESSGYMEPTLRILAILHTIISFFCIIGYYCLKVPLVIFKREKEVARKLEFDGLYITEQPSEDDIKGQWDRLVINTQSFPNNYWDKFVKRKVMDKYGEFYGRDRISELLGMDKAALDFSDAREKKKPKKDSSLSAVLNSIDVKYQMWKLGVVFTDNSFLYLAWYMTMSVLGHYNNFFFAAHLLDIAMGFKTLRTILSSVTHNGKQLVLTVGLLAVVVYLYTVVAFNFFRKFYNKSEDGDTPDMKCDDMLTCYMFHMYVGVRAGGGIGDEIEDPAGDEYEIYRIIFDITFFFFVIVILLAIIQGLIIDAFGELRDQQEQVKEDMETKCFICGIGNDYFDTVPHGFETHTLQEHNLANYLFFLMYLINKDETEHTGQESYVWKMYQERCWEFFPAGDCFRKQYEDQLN

N.N.N.N.N.N.N.N.N.N.N.N.N.N.[Cl-].[Cl-].[Cl-].[Cl-].[Cl-].[Cl-].[O-2].[O-2].[Ru+3].[Ru+3].[Ru+4] [Ruthenium Red]
block of ERβ-activated RyR2 single channel currents (20 μM Ruthenium Red after ERβ (FIG. 1A)): blocked
RyR channel block (25 μM ruthenium red after ERβ (FIG. 10A, 11A)): complete channel block
